Experimental data as given in the supplement of paper PMC8967900.

Columns and labels:
Assay in all cases: selective drug sensitivity score (sDSS, relative to normal bone marrow) (sDSS (score)); higher = more potent and effective on the cell line relative to normal bone marrow cells
Settings in all cases: 72 h
380 = tested on: 380
ALL-SIL = tested on: ALL-SIL
COG-LL-317 = tested on: COG-LL-317
COG-LL-332h = tested on: COG-LL-332h
COG-LL-394h = tested on: COG-LL-394h
COG-LL-402h = tested on: COG-LL-402h
HAL-01 = tested on: HAL-01
HPB-ALL = tested on: HPB-ALL
JURKAT = tested on: JURKAT
KARPAS-45 = tested on: KARPAS-45
MHH-CALL-2 = tested on: MHH-CALL-2
MHH-CALL-3 = tested on: MHH-CALL-3
MN-60 = tested on: MN-60
MOLT-14 = tested on: MOLT-14
NALM-16 = tested on: NALM-16
P12-ICHIKAWA = tested on: P12-ICHIKAWA
P30-OHKUBO = tested on: P30-OHKUBO
PF-382 = tested on: PF-382
REH = tested on: REH
RPMI-8402 = tested on: RPMI-8402
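Also: ALL cell lines in 384-well plates, five doses spanning 10,000-fold, each plate scaled between vehicle and 100 µmol/L benzalkonium chloride controls, sDSS an adapted area-under-curve metric.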

Compound | selective drug sensitivity score 380 | selective drug sensitivity score (ALL-SIL) | selective drug sensitivity score (COG-LL-317) | selective drug sensitivity score (COG-LL-332h) | selective drug sensitivity score (COG-LL-394h) | selective drug sensitivity score (COG-LL-402h) | selective drug sensitivity score (HAL-01) | selective drug sensitivity score (HPB-ALL) | selective drug sensitivity score (JURKAT) | selective drug sensitivity score (KARPAS-45) | selective drug sensitivity score (MHH-CALL-2) | selective drug sensitivity score (MHH-CALL-3) | selective drug sensitivity score (MN-60) | selective drug sensitivity score (MOLT-14) | selective drug sensitivity score (NALM-16) | selective drug sensitivity score (P12-ICHIKAWA) | selective drug sensitivity score (P30-OHKUBO) | selective drug sensitivity score (PF-382) | selective drug sensitivity score (REH) | selective drug sensitivity score (RPMI-8402)
Cc1nc(C(=O)NCC(=O)O)c(O)c2ccc(Oc3ccccc3)cc12 [Roxadustat] (top concentration 10000 nM) | 7.48 | -1.12 | -1.12 | -1.02 | -1.12 | -1.12 | 1.08 | 5.28 | -0.42 | -1.12 | -1.12 | -1.12 | -1.12 | -0.32 | -1.12 | -0.82 | -1.12 | -0.52 | -1.12 | -0.82
NC(=O)c1cccc(-c2cccc(OC(=O)NC3CCCCC3)c2)c1 [URB597] (top concentration 1000 nM) | 2.44 | -0.46 | -0.46 | -0.46 | -0.46 | -0.46 | 0.64 | -0.26 | -0.46 | -0.46 | 0.54 | -0.46 | -0.46 | -0.46 | -0.46 | -0.46 | -0.46 | -0.46 | -0.46 | -0.46
Nc1ncnc2c1c(COc1cccc(Cl)c1)nn2C1CCOCC1 (top concentration 10000 nM) | 5.46 | -0.64 | -0.64 | -0.14 | -0.64 | 1.56 | 4.06 | 1.26 | 0.06 | 0.26 | 1.76 | 0.66 | 2.96 | -0.64 | -0.64 | -0.54 | 0.56 | -0.24 | -0.64 | 0.46
Nc1nc(N)c2nc(-c3cccc(O)c3)c(-c3cccc(O)c3)nc2n1 [TG100-115] (top concentration 10000 nM) | 2.1 | 0.7 | -0.1 | 0.2 | -0.4 | -0.4 | 3.2 | -0.4 | -0.3 | 0.8 | 5.2 | -0.4 | -0.4 | -0.4 | 0.5 | -0.3 | 3.6 | -0.2 | 5.1 | 0
C[C@@H](Oc1cc(-c2cnn(C3CCNCC3)c2)cnc1N)c1c(Cl)ccc(F)c1Cl [Crizotinib] (top concentration 1000 nM) | -0.54 | 5.46 | -0.54 | 2.76 | 0.86 | -0.54 | -0.54 | -0.54 | -0.54 | -0.24 | -0.54 | -0.54 | -0.54 | -0.54 | -0.54 | -0.54 | -0.54 | -0.54 | -0.54 | -0.54
CCc1cc2c(cc1N1CCC(N3CCOCC3)CC1)C(C)(C)c1[nH]c3cc(C#N)ccc3c1C2=O [Alectinib] (top concentration 1000 nM) | 0.38 | -0.22 | 5.48 | 0.18 | 2.58 | 1.48 | 1.28 | -0.22 | -0.22 | 1.28 | -0.12 | -0.22 | 0.98 | 1.08 | -0.22 | -0.22 | 1.68 | -0.22 | -0.02 | 2.08
Cc1cccc(-c2nn3c(c2-c2ccnc4ccc(C(N)=O)cc24)CCC3)n1 [Galunisertib] (top concentration 1000 nM) | 0 | 0 | 0 | 0 | 0 | 0 | 1.6 | 0 | 0 | 0 | 8.5 | 0 | 0 | 0 | 0 | 0 | 2.9 | 0 | 0 | 0
CN1CCC(COc2cnc(-c3cccc(Cn4nc(-c5cccc(C#N)c5)ccc4=O)c3)nc2)CC1 [Tepotinib] (top concentration 1000 nM) | -0.08 | -0.08 | 0.52 | -0.08 | -0.08 | -0.08 | -0.08 | -0.08 | -0.08 | -0.08 | -0.08 | -0.08 | -0.08 | -0.08 | -0.08 | -0.08 | -0.08 | -0.08 | -0.08 | -0.08
C/C(=C\c1csc(C)n1)[C@@H]1C[C@@H]2O[C@]2(C)CCC[C@H](C)[C@H](O)[C@@H](C)C(=O)C(C)(C)[C@@H](O)CC(=O)N1 [Ixabepilone] (top concentration 1000 nM) | 2.08 | 2.98 | 2.98 | 4.08 | 2.18 | 1.58 | 1.78 | 7.08 | 3.28 | 3.68 | 1.88 | -0.42 | 1.48 | 4.58 | 2.88 | 2.58 | 3.78 | 1.68 | 3.78 | 2.78
CNC(=O)c1ccc2cc([C@@]3(O)CCn4cncc43)ccc2c1 [Orteronel] (top concentration 10000 nM) | 1.4 | 0 | 0 | 0 | 0 | 0 | 0 | 0 | 0 | 0 | 0 | 0 | 0 | 0 | 0 | 0 | 0 | 0 | 0 | 0
Cc1cc(C)c(CNC(=O)c2cc(-c3ccc(CN4CCOCC4)cc3)cc3c2cnn3C2CCCC2)c(=O)[nH]1 [EPZ-5687] (top concentration 10000 nM) | -0.36 | -0.36 | -0.36 | -0.36 | -0.36 | -0.36 | 3.24 | -0.36 | -0.36 | -0.26 | 5.14 | -0.36 | -0.36 | -0.36 | -0.36 | -0.36 | 2.24 | -0.36 | 6.64 | -0.16
CC(C)n1cnc2c(NCCc3ccc(O)cc3)nc(-c3csc4ccccc34)nc21 [StemRegenin_1] (top concentration 10000 nM) | -1.8 | 3.8 | -0.3 | 0.8 | -1.8 | -1.8 | 2.4 | 6.4 | 1 | 3.9 | 2.5 | -1.8 | 2.7 | -0.2 | -1.8 | 0.2 | 2.2 | 0.9 | 1.8 | -0.7
COc1cccc(-c2ccc(NC(=O)C3=C(C(=O)O)CCC3)c(F)c2)c1 [Vidofludimus] (top concentration 10000 nM) | 5 | 3.2 | 4.3 | 4.9 | 0 | 0 | 2 | 3.2 | 8.2 | 3.9 | 3 | 0.7 | 12.3 | 3.5 | 3.5 | 6.5 | 3 | 4.8 | 8.9 | 3.9
CN(C)C[C@@H]1CCn2cc(c3ccccc32)C2=C(C(=O)NC2=O)c2cn(c3ccccc23)CCO1 [Ruboxistaurin] (top concentration 10000 nM) | 3.96 | -2.94 | 1.16 | 1.16 | 0.76 | 0.96 | 1.16 | -5.14 | -1.84 | -0.14 | 3.66 | -4.24 | -5.44 | 1.66 | -3.74 | -1.74 | 0.46 | -1.34 | -0.54 | -1.74
O=C1CN2Cc3c(ccc(Cl)c3Cl)N=C2N1 [Anagrelide] (top concentration 10000 nM) | 0.1 | 2.8 | 0 | 0 | 0 | 0 | 0 | 0 | 0 | 0 | 1.5 | 0 | 0 | 0 | 0 | 0 | 0 | 0 | 0 | 0
O=C(Nc1cccnc1)N1CCC(Cc2cccc(Oc3ccc(C(F)(F)F)cn3)c2)CC1 [PF-3845] (top concentration 10000 nM) | -1.34 | -0.84 | 0.26 | 2.16 | 3.96 | -0.84 | -0.84 | -0.14 | 6.36 | 3.96 | -0.24 | -1.34 | 3.06 | 2.26 | 0.36 | 3.26 | 0.46 | 1.96 | 2.96 | 4.66
COc1cc2/c(=N/c3ccc(Br)cc3F)nc[nH]c2cc1OCC1CCN(C)CC1 [Vandetanib] (top concentration 1000 nM) | -0.22 | 2.68 | -0.22 | 0.28 | -0.22 | 0.18 | 1.68 | -0.22 | -0.22 | 0.68 | 4.38 | 0.78 | -0.22 | 0.48 | -0.22 | -0.22 | 0.38 | 0.48 | -0.22 | -0.22
Oc1ncnc2[nH]ncc12 [Allopurinol] (top concentration 10000 nM) | -0.64 | -0.14 | -0.64 | -0.64 | -0.64 | -0.64 | -0.64 | 6.06 | -0.64 | -0.24 | -0.64 | -0.64 | -0.64 | -0.64 | -0.64 | -0.64 | 0.96 | -0.64 | -0.64 | -0.64
CCNC(=O)CCC/C=C\C[C@@H]1[C@@H](/C=C/[C@@H](O)CCc2ccccc2)[C@H](O)C[C@@H]1O [Bimatoprost] (top concentration 5500 nM) | 0 | 0 | 0 | 0 | 0 | 0 | 0 | 0.5 | 0 | 0 | 0 | 0 | 0 | 0 | 0 | 0 | 0 | 0 | 1.4 | 0
